Source: US5646000A, “Compounds and methods for identifying activated platelets” (Merck & Co., Inc., priority 1994, dated 1997)
Read-outs that look alike come from different tables or passages of the source.

Tests used:
[1] = biological target: active form of GP IIb/IIIa (Homo sapiens, UniProt P05106+P08514); test: Fluorescence displacement of probe 2-8 from active form of purified GP IIb/IIIa; assay type: binding
Method: The purified glycoprotein IIb/IIIa (final concentration 0.64 μM, active form which binds to RGDS affinity column) was mixed with fluorescent antagonist 2-8 (final concentration 1 μM) in a fluorescence cell and fluorescence recorded (excitation wavelength 340 nm, emission range 360-600 nm).

ADP-stimulated platelets = test: Fibrinogen Receptor Antagonist Assay: ADP-stimulated platelet aggregation (gel-filtered human platelets); assay type: cell-based; settings: gel-filtered human platelets 2×10^8 per ml, fibrinogen 100 μg/ml, Ca^2+ 1 mM, 10 μM ADP, 37° C.
Method: The fibrinogen receptor antagonist activity is based on evaluation of inhibition of ADP-stimulated platelets. Aggregation requires that fibrinogen bind to and occupy the fibrinogen receptor site. Inhibitors of fibrinogen binding inhibit aggregation.
Platelet aggregation was measured at 37° C. in a Chronolog aggregometer. The reaction mixture contained gel-filtered human platelets (2×10^8 per ml), fibrinogen (100 μg/ml), Ca^2+ (1 mM), and the compound to be tested. The aggregation was initiated by adding 10 μM ADP after the other components had been added. The reaction was allowed to proceed for at least 2 minutes.

[2] = biological target: inactive form of GP IIb/IIIa (unactivated GP IIb/IIIa) (Homo sapiens, UniProt P05106+P08514); test: Fluorescence displacement of probe 2-8 from inactive (unactivated) form of GP IIb/IIIa; assay type: binding
Sequence of inactive form of GP IIb/IIIa (unactivated GP IIb/IIIa) (P08514 32-887 limits assumed): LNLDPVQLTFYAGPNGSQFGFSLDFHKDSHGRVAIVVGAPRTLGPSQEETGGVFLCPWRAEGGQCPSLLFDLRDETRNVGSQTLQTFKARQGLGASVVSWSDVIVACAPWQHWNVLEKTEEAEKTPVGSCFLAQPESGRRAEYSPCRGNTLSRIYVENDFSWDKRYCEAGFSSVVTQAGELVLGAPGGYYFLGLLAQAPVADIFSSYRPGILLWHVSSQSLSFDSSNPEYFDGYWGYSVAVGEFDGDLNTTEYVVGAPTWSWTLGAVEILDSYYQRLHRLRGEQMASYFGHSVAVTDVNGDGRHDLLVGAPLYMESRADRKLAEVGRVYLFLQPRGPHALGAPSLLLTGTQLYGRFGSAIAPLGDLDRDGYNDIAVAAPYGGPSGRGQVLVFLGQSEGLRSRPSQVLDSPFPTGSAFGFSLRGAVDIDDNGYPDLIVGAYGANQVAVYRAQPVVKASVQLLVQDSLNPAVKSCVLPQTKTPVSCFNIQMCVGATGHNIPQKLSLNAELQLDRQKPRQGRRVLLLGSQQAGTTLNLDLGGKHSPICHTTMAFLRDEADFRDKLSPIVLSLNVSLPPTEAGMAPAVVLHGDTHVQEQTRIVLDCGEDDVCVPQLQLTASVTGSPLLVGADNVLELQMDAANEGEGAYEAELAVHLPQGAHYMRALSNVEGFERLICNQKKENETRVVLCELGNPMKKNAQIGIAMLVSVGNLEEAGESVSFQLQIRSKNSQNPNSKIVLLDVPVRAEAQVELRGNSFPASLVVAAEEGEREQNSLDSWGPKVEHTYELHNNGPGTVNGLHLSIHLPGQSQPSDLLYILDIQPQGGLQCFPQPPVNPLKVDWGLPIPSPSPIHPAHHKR
Sequence of inactive form of GP IIb/IIIa (unactivated GP IIb/IIIa) (P08514 891-1039 partner limits assumed): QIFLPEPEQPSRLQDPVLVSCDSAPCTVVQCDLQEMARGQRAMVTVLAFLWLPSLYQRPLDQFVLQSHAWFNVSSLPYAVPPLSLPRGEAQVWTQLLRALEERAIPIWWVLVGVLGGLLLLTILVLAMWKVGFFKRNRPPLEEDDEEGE
Sequence of inactive form of GP IIb/IIIa (unactivated GP IIb/IIIa) (P05106 27-788): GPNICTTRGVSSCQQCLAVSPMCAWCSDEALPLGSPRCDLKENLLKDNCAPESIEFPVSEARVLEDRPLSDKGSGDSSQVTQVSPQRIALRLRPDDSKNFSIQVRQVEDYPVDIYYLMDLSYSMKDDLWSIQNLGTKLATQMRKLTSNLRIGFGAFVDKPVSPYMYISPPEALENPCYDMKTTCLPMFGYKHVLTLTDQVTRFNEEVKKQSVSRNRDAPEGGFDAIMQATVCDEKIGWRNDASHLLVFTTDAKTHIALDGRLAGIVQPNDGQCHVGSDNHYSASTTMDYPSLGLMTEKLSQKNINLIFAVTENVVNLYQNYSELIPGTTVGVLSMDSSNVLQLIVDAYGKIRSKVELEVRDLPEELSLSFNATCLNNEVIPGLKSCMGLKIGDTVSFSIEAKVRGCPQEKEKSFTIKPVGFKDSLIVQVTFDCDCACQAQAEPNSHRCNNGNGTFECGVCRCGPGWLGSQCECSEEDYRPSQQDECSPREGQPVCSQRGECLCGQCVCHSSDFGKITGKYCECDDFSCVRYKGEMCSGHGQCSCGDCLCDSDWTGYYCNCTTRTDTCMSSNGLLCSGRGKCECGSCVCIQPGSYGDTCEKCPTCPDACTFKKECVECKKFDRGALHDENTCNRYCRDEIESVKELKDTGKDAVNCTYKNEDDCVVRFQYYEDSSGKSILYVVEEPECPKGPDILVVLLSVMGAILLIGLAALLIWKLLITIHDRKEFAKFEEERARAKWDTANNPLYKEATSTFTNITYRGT

[3] = unactivated GP IIb/IIIa (Table 1), read-out: Ki (nM) (unactivated GP IIb/IIIa)

Sequence of active form of GP IIb/IIIa (P08514 32-887 limits assumed): as the sequence (P08514 32-887 limits assumed) above
Sequence of active form of GP IIb/IIIa (P08514 891-1039 partner limits assumed): as the sequence (P08514 891-1039 partner limits assumed) above
Sequence of active form of GP IIb/IIIa (P05106 27-788): as the sequence (P05106 27-788) above

| Structure (SMILES) | Ki ([1]; active form of GP IIb/IIIa, binds to RGDS affinity column, read-out: Ki of fluorescence antagonist 2-8 (used for the calculation)) [nM] | IC50 (ADP-stimulated platelets) [nM] | Ki [2, 3] [nM] | Ki ([2]; inactive form, does not bind to RGDS affinity column, displacement of 2-8, read-out: Ki on inactive form of GP IIb/IIIa) [nM] | Ki ([1]; GP IIb/IIIa 0.64 μM, probe 2-8 1 μM, excitation 340 nm, change in fluorescence at 550 nm, read-out: Ki for nonfluorescent antagonist toward the active form of GP IIb/IIIa) [nM] |
| --- | --- | --- | --- | --- | --- |
| CN(C)c1cccc2c(S(=O)(=O)N[C@@H](CNC(=O)c3ccc4c(c3)C(=O)N(CCC3CCNCC3)C4)C(=O)O)cccc12 [Compound 2-8, 1H-Isoindole-5-carboxamide, 2,3-dihydro-N-[2(S)-dansylamino-3-aminopropionic acid]-2-[2-(4-piperidinyl)ethyl]-3-oxo] | 3.7 |  |  |  |  |
| O=C(O)CCNC(=O)c1ccc2c(c1)C(=O)N(CCC1CCNCC1)C2 [Compound A, 2,3-Dihydro-N-(2-carboxyethyl)-2-[2-(4-piperidinyl)ethyl]-3-oxo-1-H-isoindole-5-carboxamide] |  | 27 | 99 |  |  |
| O=C(O)C[C@@H](CCc1c[nH]c2ccccc12)NC(=O)CNC(=O)CCCC1CCNCC1 [Compound B, Pib-Gly-3(R)-[2(indol-3-yl)ethyl]β-alanine hydrogen chloride] |  | 94 |  | 470 | 4 |

More lines, in order of falling IC50 (ADP-stimulated platelets), values ahead:

| Ki ([1]; active form of GP IIb/IIIa, binds to RGDS affinity column, read-out: Ki of fluorescence antagonist 2-8 (used for the calculation)) [nM] | IC50 (ADP-stimulated platelets) [nM] | Ki [2, 3] [nM] | Ki ([2]; inactive form, does not bind to RGDS affinity column, displacement of 2-8, read-out: Ki on inactive form of GP IIb/IIIa) [nM] | Ki ([1]; GP IIb/IIIa 0.64 μM, probe 2-8 1 μM, excitation 340 nm, change in fluorescence at 550 nm, read-out: Ki for nonfluorescent antagonist toward the active form of GP IIb/IIIa) [nM] | Structure (SMILES) |
| --- | --- | --- | --- | --- | --- |
|  | 21 | 2.4 |  |  | CCCCS(=O)(=O)N[C@@H](CNC(=O)c1ccc2c(c1)C(=O)N(CCC1CCNCC1)C2)C(=O)O [Compound D, 1-H-isoindole-5-carboxamide, 2,3 dihydro-N-[3-(2(S)-n-butylsulfonylamino)propionic acid]-2-[2-(4-piperidinyl)ethyl]-3-oxo] |
|  | 8 | ≤ 2.7 |  |  | O=C(NC[C@H](NS(=O)(=O)c1cccnc1)C(=O)O)c1cc2cc(CCC3CCNCC3)sc2s1 [Compound E, 5-[2-(Piperidin-4-yl)ethyl]thieno[2,3-b]thiophene-2-N-[3-2(S)-(3-pyridylsulfonylamino)propionic acid] carboxamide] |
